Test results taken from ChEMBL document CHEMBL1148928, “Hyrtiosenolides A and B, two new sesquiterpene gamma-methoxybutenolides and a new sterol from a Red Sea sponge Hyrtios species” (2004).
The source made the active and inactive calls. The calls are words filed in the database; no cut-off is given here.

Experiments:
Escherichia coli [1] = test: Antibacterial activity against Escherichia coli at 100 ug/disk; format: functional
Escherichia coli [2] = test: Antibacterial activity against Escherichia coli at 50 ug/disk; format: functional

| Structure (SMILES) | Activity (Escherichia coli [1]) | Activity (Escherichia coli [2]) | zone of inhibition at 100 µg/disc (Escherichia coli [1]; read-out: IZ) [mm] | zone of inhibition at 50 µg/disc (Escherichia coli [2]; read-out: IZ) [mm] |
| --- | --- | --- | --- | --- |
| C=C1[C@@]2(C)CCC3=CC(=O)O[C@]3(OC)[C@H](C2)C[C@@]1(C)O | inactive | inactive |  |  |
| C=C1C[C@H]2C[C@](C)(CCC3=CC(=O)O[C@@]32OC)[C@]1(C)O [HYRTIOSENOLIDE A] |  |  | 7 | 7 |
